The target in one assay is T1, PI3Kδ kinase (Homo sapiens, UniProt O00329).
T1 construct: purchased Reaction Biology Corporation (assay service)
The assay is described as follows: PI3Kδ kinase assay (ADP-Glo, Reaction Biology). The class given is biochemical. As to the method: IC50 values of compounds against the PI3Kδ kinase were determined by an assay performed by Reaction Biology Corporation (Malvern, Pa.). Briefly, this assay was conducted in buffer (Tris-HCl 40 mM (pH7.5), Orthovanadate 3 mM, MgCl2 20 mM, DTT 2 mM, CHAPS 0.05%, DMSO 1%). PI3Kδ kinase was added to the reaction solution and mixed gently. The test compounds in 100% DMSO (at specific solutions) were mixed with the kinase reaction mixture to achieve the final compounds at pre-defined concentrations (e.g., range −0.5 nM to 100 μM) by Acoustic technology (Echo550; nanoliter range). After incubating for 10 min at room temp, ATP was added into the reaction mixture to initiate the reaction followed by a 30-min incubation at 30° C. After quenching the reaction with ADP-Glo reagent, the plates were incubated for 40 min. The Detection Mixture was added, and the plate was incubated for an additional 30 min. At the end of incubation, luminescence was measured. For data analysis, the luminescence was converted into μM ADP production based on ADP standard curves. The nonlinear regression to obtain the standard curve and IC50 values was performed using GraphPad Prism (GraphPad Software, Inc., San Diego, Calif.).
A general note: In ADP-Glo the light output rises with the ADP produced.

For the next assay, the target named is T2, FMS kinase (Homo sapiens, UniProt P07333).
T2 construct: purchased Invitrogen (Life Technologies)
T2 sequence (P07333 20-972): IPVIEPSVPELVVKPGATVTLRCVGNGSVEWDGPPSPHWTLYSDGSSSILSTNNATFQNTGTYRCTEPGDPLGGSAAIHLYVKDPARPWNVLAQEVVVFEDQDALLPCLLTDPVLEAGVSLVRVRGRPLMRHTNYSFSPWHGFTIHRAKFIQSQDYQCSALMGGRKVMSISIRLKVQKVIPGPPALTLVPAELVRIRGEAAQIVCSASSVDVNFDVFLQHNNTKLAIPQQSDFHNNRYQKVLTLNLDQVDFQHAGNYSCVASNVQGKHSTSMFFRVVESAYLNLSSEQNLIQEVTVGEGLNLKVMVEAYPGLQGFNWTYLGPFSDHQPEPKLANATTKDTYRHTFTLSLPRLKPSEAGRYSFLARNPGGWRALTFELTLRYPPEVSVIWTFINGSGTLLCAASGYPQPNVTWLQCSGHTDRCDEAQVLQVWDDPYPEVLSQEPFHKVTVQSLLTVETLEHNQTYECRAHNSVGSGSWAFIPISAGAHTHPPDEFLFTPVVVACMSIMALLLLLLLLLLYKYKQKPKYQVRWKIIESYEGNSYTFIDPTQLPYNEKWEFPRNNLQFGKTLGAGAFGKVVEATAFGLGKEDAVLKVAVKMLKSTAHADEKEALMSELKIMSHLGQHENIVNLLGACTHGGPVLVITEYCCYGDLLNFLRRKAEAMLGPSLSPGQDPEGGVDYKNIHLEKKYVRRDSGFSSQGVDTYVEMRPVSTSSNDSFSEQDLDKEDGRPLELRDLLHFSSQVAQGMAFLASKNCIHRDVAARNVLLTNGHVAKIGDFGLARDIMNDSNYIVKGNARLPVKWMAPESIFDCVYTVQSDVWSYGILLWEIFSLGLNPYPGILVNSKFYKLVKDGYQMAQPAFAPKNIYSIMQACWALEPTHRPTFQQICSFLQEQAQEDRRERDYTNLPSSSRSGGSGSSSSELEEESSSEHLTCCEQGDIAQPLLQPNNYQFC
The assay is described as follows: LanthaScreen Eu Kinase Binding Assay (ATP, fluorescent-PolyGT substrate). The class given is biochemical. As to the method: IC50 values of compounds against FMS kinase were determined by LanthaScreen™ Eu Kinase Binding Assay at Invitrogen (Life Technologies Grand Island, N.Y.) where total reaction volume was 10 μL in low-volume 384-well plates (#4511, Corning). Serially diluted compounds (3-fold) were incubated with kinase (1.25 nM) for 10 min, following which a mixture of ATP (10 μM) (#A1852, Sigma, St-Louis, Mo.) and fluorescent-PolyGT substrate (200 nM) (#PV3610, Invitrogen, Life Technologies Grand Island, N.Y.) was added and incubated in dark at room temperature for 1H. After 1H, 10 μL stop solution containing Terbium labeled antibody (4 nM) (#PV3529, Invitrogen, Life Technologies Grand Island, N.Y.) and EDTA (#E5134, Sigma, St-Louis, Mo.) (20 mM) in TR-FRET dilution buffer (#PV3574, Invitrogen, Life Technologies Grand Island, N.Y.) was added. Readings were taken in a Synergy Neo Plate reader (BioTek, Winooski) at single excitation of 340 nm and Dual emission at 495 nm and 520 nm respectively.
The following equations were used for LanthaScreen Eu Kinase Binding Assay Data Analysis. Percent inhibition (100-% activity) was fitted to the “four-parameter logistic model” in XLfit for determination of IC50 values.
Background: In TR-FRET formats the signal depends on donor and acceptor labels being close together.

The target in a further assay is T3, CDK6 (Homo sapiens, UniProt Q00534).
T3 construct: purchased Invitrogen PR8422B
T3 sequence (Q00534 whole entry): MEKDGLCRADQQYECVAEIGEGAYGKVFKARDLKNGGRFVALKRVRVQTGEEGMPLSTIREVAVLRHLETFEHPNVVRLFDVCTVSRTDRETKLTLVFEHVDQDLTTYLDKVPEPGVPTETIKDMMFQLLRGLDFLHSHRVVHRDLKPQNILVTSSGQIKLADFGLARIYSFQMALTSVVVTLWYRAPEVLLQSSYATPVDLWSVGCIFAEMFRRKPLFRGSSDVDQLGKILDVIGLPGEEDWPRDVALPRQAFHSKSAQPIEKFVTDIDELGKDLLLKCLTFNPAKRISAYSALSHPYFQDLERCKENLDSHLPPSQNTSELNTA
T3 sequence (P24385 whole entry partner): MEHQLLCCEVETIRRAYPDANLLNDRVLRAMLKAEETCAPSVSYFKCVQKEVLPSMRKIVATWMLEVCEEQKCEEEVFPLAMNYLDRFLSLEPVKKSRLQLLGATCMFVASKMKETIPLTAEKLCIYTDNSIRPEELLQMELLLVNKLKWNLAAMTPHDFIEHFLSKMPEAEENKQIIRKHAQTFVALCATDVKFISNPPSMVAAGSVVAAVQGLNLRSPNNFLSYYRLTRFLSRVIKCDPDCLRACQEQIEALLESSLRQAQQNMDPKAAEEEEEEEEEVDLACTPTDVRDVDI
The assay is described as follows: In vitro kinase inhibition IC50, luminescence (ADP Glo), retinoblastoma substrate. The class given is biochemical. The note with it: read-out: CDK6/D1 IC50. The procedure:
(§1) IC50 values of compounds against CDK4 and CDK6 were determined by luminescence using retinoblastoma as substrate. Kinase assays were performed in kinase buffer (#PV6135, Invitrogen Life Technologies, Grand Island, N.Y.) where total reaction volume was […] in 96-well half area white plates (#3693, Costar). One microliter of 25×test compounds at specific concentrations (e.g., final concentration range: 0.1 nM-200 nM) was mixed with 10 μL of 2.5×kinase (5 nM, CDK4 #PR8064A and CDK6 #PR8422B, Invitrogen) solution and 14 μL of 4× mixed solution with retinoblastoma (1 μM, #12-439, EMD Millipore, Hayward, Calif.) and ATP (25 μM, #V7038, Promega, Madison, Wis.). The plates were covered and incubated for 2H at room temperature. At the end of incubation, 25 μL of stop solution—ADP Glo reagent (#V7002, Promega) was added. After incubation for 45 min at room temperature, 50 μL of detection reagent (##V7002, Promega) was added. Readings were taken at 15 min and 45 min incubation after detection reagent was added in a Synergy Neo Plate reader (BioTek, Winooski, Vt.) at single excitation of 340 nm and Dual emission at 495 nm and 520 nm respectively. The following equations were used in the CDK4 and CDK6 assay data analysis. Percent inhibition (100-% activity) was fitted to the “four-parameter logistic model” in XLfit for determination of IC50 values.
(§2) Percent conversion of enzyme=100−{(RLUNo Drug−No enzyme*100)/RLUNo drug+Enzyme} Equation 1:
(§3) Percent conversion at each data point=100−{(RLUAverage(Drug+enzyme)*100)!RLUNo drug+Enzyme} Equation 2:
(§4) Percent Inhibition=100*(% Conversioneach data point/% ConversionEnzyme) Equation 3: […]

A further assay addresses T4, CDK4 (Homo sapiens, UniProt P11802).
T4 construct: purchased Invitrogen PR8064A
The description is as above. The note with it: read-out: CDK4/D1 IC50. The class given is biochemical. The procedure:
as §1, §2, §3, §4

In assay [1] the test system is DU4475 breast carcinoma cells. Put plainly: Cancer cell proliferation assay, single agent (cell viability). The following applies: Homo sapiens, DU-4475; Table 4; Rb negative; treatment 144 Hr with medium change at 72 Hr; Cell Titer-Glo or resazurin. It counts as cell-based. As to the method:
(§5) The effects of test compounds were studied in three breast cancer cell lines of different subtype. The cancer cells (Table 3) were harvested during the logarithmic growth period and counted. Cell concentrations were adjusted to the appropriate number with respective medium and 90 μL cell suspensions were added to 96-well plates. After cells were seeded, the plates were shaken gently to distribute cells evenly and incubated at 37° C., 5% CO2 on day 1.
(§6) Cells were treated with test compounds at 7 to 9 concentrations within a desired concentration range (e.g. 1.1 nM-10 μM) on day 2 by series diluting the test compound stock solution (10 mM in DMSO) with culture medium. Treatment duration was 24 Hr for BT-549 cells and 144 Hr (with a medium change at 72 Hr) for MCF-7 and DU4475 cells. Cell viability was assessed by Cell Titer-Glo® as recommended by Promega (Cat. No.: G7572), or by resazurin assay (Sigma Aldrich, Cat. No.: R7017) post treatment.
(§7) Cell viability data were plotted using GraphPad Prism (GraphPad Software, Inc., San Diego, Calif.). In addition, a nonlinear regression model with a sigmoidal dose response and variable slope within GraphPad Prism was used to calculate the IC50 value of individual test compounds.
A general note: In ATP-based viability assays light output follows the ATP content of the culture.

The test system of assay [2] is MCF-7 breast adenocarcinoma cells. Described as above. The class given is cell-based. The following applies: Homo sapiens, MCF7, Table 4; Rb positive; treatment 144 Hr with medium change at 72 Hr; Cell Titer-Glo or resazurin. As to the method:
as §5, §6, §7

pIC50: −log10 of the molar value.

T1 sequence (O00329 whole entry): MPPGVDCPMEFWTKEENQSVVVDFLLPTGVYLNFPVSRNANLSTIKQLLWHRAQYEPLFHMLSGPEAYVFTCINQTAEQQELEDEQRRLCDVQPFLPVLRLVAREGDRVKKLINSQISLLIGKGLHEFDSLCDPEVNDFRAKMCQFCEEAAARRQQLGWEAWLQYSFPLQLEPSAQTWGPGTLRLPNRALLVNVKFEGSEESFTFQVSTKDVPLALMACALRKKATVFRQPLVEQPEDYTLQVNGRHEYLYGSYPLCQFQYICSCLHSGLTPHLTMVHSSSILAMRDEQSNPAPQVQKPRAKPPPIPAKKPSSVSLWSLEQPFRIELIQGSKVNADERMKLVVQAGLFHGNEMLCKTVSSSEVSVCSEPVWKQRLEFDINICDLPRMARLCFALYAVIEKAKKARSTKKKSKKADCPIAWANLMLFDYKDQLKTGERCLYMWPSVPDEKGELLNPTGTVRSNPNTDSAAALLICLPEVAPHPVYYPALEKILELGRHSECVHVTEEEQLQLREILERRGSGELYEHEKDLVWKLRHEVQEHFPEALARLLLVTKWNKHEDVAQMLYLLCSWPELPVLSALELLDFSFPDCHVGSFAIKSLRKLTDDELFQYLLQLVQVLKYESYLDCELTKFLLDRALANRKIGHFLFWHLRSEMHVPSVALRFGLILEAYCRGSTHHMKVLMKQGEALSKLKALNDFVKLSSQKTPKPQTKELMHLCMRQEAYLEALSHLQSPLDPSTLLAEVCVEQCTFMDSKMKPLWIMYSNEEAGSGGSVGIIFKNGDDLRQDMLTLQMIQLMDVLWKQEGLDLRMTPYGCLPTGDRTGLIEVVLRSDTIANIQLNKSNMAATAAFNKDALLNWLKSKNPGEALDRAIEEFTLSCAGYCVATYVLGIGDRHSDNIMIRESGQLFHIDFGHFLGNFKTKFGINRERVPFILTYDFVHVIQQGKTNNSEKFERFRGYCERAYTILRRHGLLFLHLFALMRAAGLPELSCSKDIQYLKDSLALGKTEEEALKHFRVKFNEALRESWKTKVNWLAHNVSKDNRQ
T1 sequence (P27986 whole entry partner): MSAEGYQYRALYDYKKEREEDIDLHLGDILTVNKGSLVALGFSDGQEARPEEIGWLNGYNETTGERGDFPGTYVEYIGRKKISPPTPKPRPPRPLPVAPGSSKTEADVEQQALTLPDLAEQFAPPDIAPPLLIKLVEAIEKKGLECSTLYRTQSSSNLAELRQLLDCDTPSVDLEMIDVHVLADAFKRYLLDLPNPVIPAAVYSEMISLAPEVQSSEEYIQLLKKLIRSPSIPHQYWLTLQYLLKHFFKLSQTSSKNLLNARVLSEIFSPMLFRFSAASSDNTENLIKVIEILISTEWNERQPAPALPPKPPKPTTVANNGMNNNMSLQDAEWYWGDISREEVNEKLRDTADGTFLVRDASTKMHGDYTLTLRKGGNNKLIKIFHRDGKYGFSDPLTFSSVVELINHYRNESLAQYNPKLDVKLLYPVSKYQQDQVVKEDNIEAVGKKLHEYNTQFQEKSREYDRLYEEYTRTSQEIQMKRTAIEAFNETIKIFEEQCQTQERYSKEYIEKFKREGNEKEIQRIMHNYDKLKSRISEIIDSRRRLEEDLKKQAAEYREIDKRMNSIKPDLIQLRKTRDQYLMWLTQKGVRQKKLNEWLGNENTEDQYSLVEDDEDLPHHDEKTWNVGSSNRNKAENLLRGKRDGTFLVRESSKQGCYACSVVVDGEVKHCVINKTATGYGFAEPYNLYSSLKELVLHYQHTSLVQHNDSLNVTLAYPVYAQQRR
T4 sequence (P11802 whole entry): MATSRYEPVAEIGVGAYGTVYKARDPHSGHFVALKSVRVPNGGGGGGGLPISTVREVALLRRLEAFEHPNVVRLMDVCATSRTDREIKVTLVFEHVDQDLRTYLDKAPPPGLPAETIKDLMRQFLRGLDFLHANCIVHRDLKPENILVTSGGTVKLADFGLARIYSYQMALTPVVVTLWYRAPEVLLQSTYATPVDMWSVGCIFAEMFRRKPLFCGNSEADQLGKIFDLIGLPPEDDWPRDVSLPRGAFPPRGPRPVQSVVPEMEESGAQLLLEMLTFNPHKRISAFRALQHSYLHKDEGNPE
T4 sequence (P24385 whole entry partner): as the sequence (P24385 whole entry partner) above

For `N#Cc1cc2cnc(Nc3ccc4c(c3)NC(=O)CC4)nc2n(C2CCCC2)c1=O` [Compound No. 9, 8-cyclopentyl-7-oxo-2-((2-oxo-1,2,3,4-tetrahydroquinolin-7-yl)amino)-7,8-dihydropyrido[2,3-d]pyrimidine-6-carbonitrile], the pIC50 against PI3Kδ kinase is 6.02; on FMS kinase it was > 9.00.
For `CC1(C)CNCc2cc(Nc3ncc4cc(C#N)c(=O)n(C5CCCC5)c4n3)ccc21` [Compound No. 8, 8-cyclopentyl-2-((4,4-dimethyl-1,2,3,4-tetrahydroisoquinolin-7-yl)amino)-7-oxo-7,8-dihydropyrido[2,3-d]pyrimidine-6-carbonitrile], the pIC50 at PI3Kδ kinase is 5.61.
`CCC(C)n1c(=O)c(C#N)cc2cnc(Nc3ccc4c(c3)CCNC4)nc21` (centres unmarked) [Compound No. 80, 8-(sec-butyl)-7-oxo-2-((1,2,3,4-tetrahydroisoquinolin-6-yl)amino)-7,8-dihydropyrido[2,3-d]pyrimidine-6-carbonitrile]: the pIC50 on CDK6 is 7.66; on CDK4, 6.89; against PI3Kδ kinase, 6.53; in assay [1], 6.06; in assay [2], 6.30.
On to `CCC(CC)n1c(=O)c(C#N)cc2cnc(Nc3ccc4c(c3)CCNC4)nc21` [Compound No. 86, 7-oxo-8-(pentan-3-yl)-2-((1,2,3,4-tetrahydroisoquinolin-6-yl)amino)-7,8-dihydropyrido[2,3-d]pyrimidine-6-carbonitrile], for which the pIC50 was 7.60 at CDK6; 6.75 at CDK4; 6.08 against PI3Kδ kinase; 5.86 in assay [1]; 6.27 in assay [2].
The corresponding values for `CN1CCC(c2ccc(Nc3ccc4cc(C#N)c(=O)n(C5CCCC5)c4n3)cc2)CC1` [Compound No. 98, 1-cyclopentyl-7-((4-(1-methylpiperidin-4-yl)phenyl)amino)-2-oxo-1,2-dihydro-1,8-naphthyridine-3-carbonitrile] are < 6.70, < 6.70, < 4.30, 5.84 and 5.76.
Turning to `CC1CN(c2ccc(Nc3ncc4cc(C#N)c(=O)n(C5CCCC5)c4n3)nc2)CCN1` (centres unmarked) [Compound No. 23, 8-cyclopentyl-2-((5-(3-methylpiperazin-1-yl)pyridin-2-yl)amino)-7-oxo-7,8-dihydropyrido[2,3-d]pyrimidine-6-carbonitrile], the pIC50 is 8.15 on CDK6; 7.15 at CDK4; 7.28 at FMS kinase; 4.91 in assay [1]; 6.12 in assay [2].
For the compound `CN1CCN(c2ccc(Nc3ccc4cc(C#N)c(=O)n(C5CCCC5)c4n3)cc2)CC1` [Compound No. 96, 1-cyclopentyl-7-((4-(4-methylpiperazin-1-yl)phenyl)amino)-2-oxo-1,2-dihydro-1,8-naphthyridine-3-carbonitrile], the pIC50 on CDK6 was 6.81; at CDK4, < 6.70; against PI3Kδ kinase, < 4.30; in assay [1], 5.77; in assay [2], 5.61.
On to `CC1CCN(c2ccc(Nc3ncc4cc(C#N)c(=O)n(C5CCCC5)c4n3)cc2)CC1` [Compound No. 25, 8-cyclopentyl-2-((4-(4-methylpiperidin-1-yl)phenyl)amino)-7-oxo-7,8-dihydropyrido[2,3-d]pyrimidine-6-carbonitrile], for which the pIC50 at CDK6 is 7.42; at CDK4, < 6.70; at FMS kinase, 7.89; in assay [2], < 4.52.
Turning to `N#Cc1cc2cnc(Nc3cc(F)c(N4CCNCC4)c(F)c3)nc2n(C2CCCC2)c1=O` [Compound No. 27, 8-cyclopentyl-2-((3,5-difluoro-4-(piperazin-1-yl)phenyl)amino)-7-oxo-7,8-dihydropyrido[2,3-d]pyrimidine-6-carbonitrile], the pIC50 is 8.46 on CDK6, 7.74 at CDK4, 8.46 at FMS kinase and 6.86 in assay [2].
With `CN1CCn2nc(Nc3ncc4cc(C#N)c(=O)n(C5CCCC5)c4n3)cc2C1` [Compound No. 52, 8-cyclopentyl-2-((5-methyl-4,5,6,7-tetrahydropyrazolo[1,5-a]pyrazin-2-yl)amino)-7-oxo-7,8-dihydropyrido[2,3-d]pyrimidine-6-carbonitrile], the pIC50 at CDK6 was 7.89; at CDK4, 7.41; on FMS kinase, 8.19; in assay [2], 5.20.
The corresponding values for `CN1CCN(S(=O)(=O)c2cccc(Nc3ncc4cc(C#N)c(=O)n(C5CCCC5)c4n3)c2)CC1` [Compound No. 17, 8-cyclopentyl-2-((3-((4-methylpiperazin-1-yl)sulfonyl)phenyl)amino)-7-oxo-7,8-dihydropyrido[2,3-d]pyrimidine-6-carbonitrile] are < 6.70, < 6.70, 7.28 and 5.49.
As to `N#Cc1cc2ccc(Nc3ccc4c(c3)CCNC4)nc2n(C2CCCC2)c1=O` [Compound No. 97, 1-cyclopentyl-2-oxo-7-((1,2,3,4-tetrahydroisoquinolin-6-yl)amino)-1,2-dihydro-1,8-naphthyridine-3-carbonitrile], the pIC50 on CDK6 was < 6.70; at CDK4, < 6.70; at PI3Kδ kinase it was < 4.30; in assay [1] it was 5.90; in assay [2], 5.79.
As for `CN1CCN(C(=O)c2cccc(Nc3ncc4cc(C#N)c(=O)n(C5CCCC5)c4n3)c2)CC1` [Compound No. 16, 8-cyclopentyl-2-((3-(4-methylpiperazine-1-carbonyl)phenyl)amino)-7-oxo-7,8-dihydropyrido[2,3-d]pyrimidine-6-carbonitrile], the pIC50 on CDK6 is < 6.70; at CDK4 it was < 6.70; at FMS kinase it was 8.15; in assay [2], 5.22.

For the origin of these results see patent publication US20220273659A1, “HETEROCYCLIC COMPOUNDS AS KINASE INHIBITORS” (NUVATION BIO INC., priority 2019, published 2022).
